# Source: article PMC4729137, “Functional analysis of androgen receptor mutations that confer anti-androgen resistance identified in circulating cell-free DNA from prostate cancer patients” (Genome Biology, 2016)
# Where a chain is given by its changes, count along the chain named.
# Legend:
# H875Y/T878A-AR = molecular target: T1, H875Y/T878A-AR (Homo sapiens, UniProt P10275, H875Y/T878A); type: cell-based; details: AR mutant H875Y/T878A; transfected PC3 cells; 0.1 nM R1881; drug 0 to 50 μM
# T1 sequence (P10275 1-920 H875Y/T878A): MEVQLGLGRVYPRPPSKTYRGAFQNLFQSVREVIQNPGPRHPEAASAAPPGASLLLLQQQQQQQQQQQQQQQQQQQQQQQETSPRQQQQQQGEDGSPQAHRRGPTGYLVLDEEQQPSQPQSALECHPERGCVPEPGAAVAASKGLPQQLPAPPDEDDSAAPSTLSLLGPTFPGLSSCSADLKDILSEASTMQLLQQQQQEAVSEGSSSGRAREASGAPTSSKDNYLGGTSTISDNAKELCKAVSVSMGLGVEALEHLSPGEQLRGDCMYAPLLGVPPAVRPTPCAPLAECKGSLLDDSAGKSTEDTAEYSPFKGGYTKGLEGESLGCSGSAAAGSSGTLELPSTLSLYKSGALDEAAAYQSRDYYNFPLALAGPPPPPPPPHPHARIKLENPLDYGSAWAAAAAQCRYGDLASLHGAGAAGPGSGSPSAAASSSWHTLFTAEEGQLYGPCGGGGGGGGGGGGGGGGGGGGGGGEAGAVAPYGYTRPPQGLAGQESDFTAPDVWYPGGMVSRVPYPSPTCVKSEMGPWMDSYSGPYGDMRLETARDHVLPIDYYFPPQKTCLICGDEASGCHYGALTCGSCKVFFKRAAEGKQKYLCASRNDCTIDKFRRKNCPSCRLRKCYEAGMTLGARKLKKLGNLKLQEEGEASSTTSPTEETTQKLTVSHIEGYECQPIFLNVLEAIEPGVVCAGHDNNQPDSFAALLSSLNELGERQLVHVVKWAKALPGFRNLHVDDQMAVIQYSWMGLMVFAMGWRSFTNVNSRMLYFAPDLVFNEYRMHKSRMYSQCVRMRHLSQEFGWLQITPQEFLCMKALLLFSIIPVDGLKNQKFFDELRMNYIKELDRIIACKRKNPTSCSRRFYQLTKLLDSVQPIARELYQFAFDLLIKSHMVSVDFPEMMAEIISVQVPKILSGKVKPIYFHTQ
# E894K-AR = molecular target: T2, E894K-AR (Homo sapiens, UniProt P10275, E894K); type: cell-based; details: AR mutant E894K; transfected PC3 cells; 0.1 nM R1881; drug 0 to 50 μM
# T2 sequence (P10275 1-920 E894K): T1 sequence (P10275 1-920 H875Y/T878A) with Y875H, A878T, E894K
structure (smiles),measurement,setting,value
"CC(C)(O)C(=O)Nc1ccc([N+](=O)[O-])c(C(F)(F)F)c1 [Hydroxyflutamide, hydroxyflutamide]",Agonist response to treatment,H875Y/T878A-AR,Yes
same,Agonist response to treatment,E894K-AR,Partial
